Data from PMC7156456, “Modulation of virus-induced NF-κB signaling by NEMO coiled coil mimics” (Nature Communications, 2020).

Tests used:
[1] = Thermal denaturation by circular dichroism; type: physicochemical; details: 5–95 °C
Procedure: […] The spectra were averaged over 4 scans with the background subtracted to the analogous experimental conditions. Each sample was prepared in a 50 mM potassium fluoride solution in water (pH 7.4) to a final concentration of 20 μM. The concentrations of each peptide were determined by the UV absorption at 280 nm.

vFLIP/NEMO interaction = molecular target: T1, vFLIP/NEMO interaction (Human herpesvirus 8 type P, UniProt F5HEZ4); assay: biochemical; type: binding, Kaposi's sarcoma herpesvirus (KSHV)
T1 construct: vFLIP (1-178) and NEMO (150-272) were cloned into pET28a vector; made in house; host or cells: E. coli BL21(DE3)
Procedure: For the competition assay, two-fold serial dilution of the different NEMO mimetics were prepared in DMSO then diluted in TR-FRET buffer to 5× and added in triplicates to a 384 low volume well plate. His-MBP vFLIP diluted to 5× in TR-FRET buffer (250 nM) was then added to each well and incubated for 15 min at RT. His-Biotinylated NEMO diluted to 5× in TR-FRET buffer (250 nM) was the added to the mixture followed by addition of 5× or 200 nM) streptavidin-XL665 and (5× or 1 nM) of the antibody-tagged fluorophore anti-MBPK labeled with Europium cryptate). The final concentration of the NEMO mimetics ranged from 0.195 μM to 100 μM. Total assay volume was 20 μL. The plate was incubated for 1 h at RT then read using BioTek Synergy NEO. Titration of non-biotinylated NEMO (0.0195-10 μM) was used as a positive control in every run. The effect of the peptides on vFLIP/NEMO interaction was normalized to the control and expressed as percent inhibition (% of control):
%ofcontrol=FRETCHD−FRETbackground/FRETcontrol−FRETbackground where FRET control is the TR-FRET signal in DMSO treated wells (highest signal) and FRET background is TR-FRET signal in wells containing the highest concentration of non-biotinylated NEMO (10 μM) which provides the lowest signal. Normalized TR-FRET data was plotted using Graphpad Prism.
Supplementary Figure 1. Schematic representation of the Time-resolved Fluorescence Energy Transfer (TR-FRET) binding assay. (a) Complexes of recombinant his-MBP vFLIP, biotinylated His-NEMO, Europium cryptate conjugated anti-MBP antibody and strepavidin XL665 were used to generate proximity for a FRET signal between the donor fluorophore Europium cryptate and the acceptor fluorophore strepavidin XL665. The TR-FRET signal was calculated as a ratiometric measurement of the acceptor fluoroscence emission at 665nm over the donor emission at 620nm multiplied by 10000. […] (d) Size exclusion chromatography of NEMO-vFLIP complex indicating a shift to the left in absorbance at 280nm when NEMO binds specifically to vFLIP. […]

BC-3-luc PEL xenograft = assay: PEL in vivo xenograft mouse model; set-up: species or system NOD-SCID mice; details: 20 mg/kg, 9 consecutive days
Procedure: We injected BC-3-luc PEL cells into the peritoneal cavity of NOD-SCID mice and monitored tumor burden by bioluminescence imaging. […] Although the overall performance of our peptide is highly encouraging, further optimization of delivery and dosing will be essential to achieve more robust responses in vivo.
[…] BC3NFRen-luc#3 were injected intraperitoneally into 4-6 week-old male NOD/SCID mice (Jackson Laboratory, stock 001303). […] We monitored tumor burden or bioluminescence (photons/s/cm^2/steradian) by live imaging and weighing, with the sacrificial endpoint determined to be a net gain or loss of 10% body weight over a week.

Serum stability assay = type: in vitro ADME; details: 25% fetal bovine serum in RPMI, HPLC, read-out: initial peptide remained intact
Procedure: Time points of 30 min, 1 h, 2 h, 8 h, and 24 h were analyzed in triplicate. Each reaction was started upon addition of FBS to 60 μM peptide. Reactions were quenched at time points with addition of 100% EtOH, chilled on ice for 10 min, and pelleted at 11,752 × g. Supernatant was injected onto an Agilent analytical HPLC equipped with an XTerra RP18 3.5 µm 2.1 × 150 mm column (Part No. 186000410) and visualized at 220 nm. Integration of peak areas was used to determine percent degradation of peptides. Mass of cleaved products were determined using Matrix assisted laser desorption ion time of flight (MALDI-TOF) spectroscopy.

T1 sequence (F5HEZ4 1-178): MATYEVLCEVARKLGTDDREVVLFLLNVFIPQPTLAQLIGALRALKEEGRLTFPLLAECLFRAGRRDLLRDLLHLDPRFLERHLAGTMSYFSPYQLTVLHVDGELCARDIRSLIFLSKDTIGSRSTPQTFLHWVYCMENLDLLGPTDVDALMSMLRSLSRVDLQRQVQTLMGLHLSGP

CC[C@H](C)[C@H](NC(=O)[C@H](CC(C)C)NC(=O)[C@H](CCC(=O)O)NC(=O)[C@H](CC(=O)O)NC(=O)[C@@H](NC(=O)[C@H](CCCCn1cc(COCc2cn(CCCC[C@H](NC(=O)[C@H](CC(C)C)NC(=O)[C@H](CCCNC(=N)N)NC(=O)[C@H](CCCNC(=N)N)NC(=O)[C@@H](NC(=O)[C@H](CCC(=O)NC3CCCCC3)NC(=O)[C@H](CCC(=O)O)NC(=O)[C@H](Cc3c[nH]c4ccccc34)NC(=O)[C@H](CC(C)C)NC(=O)[C@H](CCC(N)=O)NC(=O)[C@H](CCCNC(=N)N)NC(=O)[C@@H](NC(=O)[C@H](Cc3c[nH]c4ccccc34)NC(=O)[C@H](CCC(=O)O)NC(C)=O)[C@@H](C)CC)[C@@H](C)CC)C(N)=O)nn2)nn1)NC(=O)[C@H](CCCNC(=N)N)NC(=O)[C@H](Cc1ccccc1)NC(=O)[C@H](CC(C)C)NC(=O)[C@H](CCCNC(=N)N)NC(=O)[C@H](Cc1c[nH]cn1)NC(=O)[C@@H](NC(=O)[C@H](CCC(=O)O)NC(C)=O)[C@@H](C)CC)[C@@H](C)CC)C(=O)N[C@@H](CCCNC(=N)N)C(N)=O [CHD3^NEMO]
conformational stability (helix percentage) [1]: retain a significant proportion of helix percentage at high temperatures | Ki (vFLIP/NEMO interaction): 6.9 ± 1.4 µM | toxicity (BC-3-luc PEL xenograft): without any observed toxicity | remaining at 24 h, 60 μM (Serum stability assay): ~80%
